Results published in US20230146455A1, “TREATMENT OF INFLAMMATORY DISEASES WITH PEPTIDES AND PHARMACEUTICAL COMPOSITIONS” (Yuyu Pharma, Inc., priority 2020, published 2023).
Where “and” joins values, the source holds several entries; their conditions need not be identical. Equal entries are not always repeated. Where a SMILES comes first, the peptide text is derived from it. [ ]: non-standard residue; d: D form. Hyp = O=C(O)[C@@H]1C[C@@H](O)CN1

Assays:
CCL4/MIP-1 beta = assay: Example 8 main study Luminex, LPS hPBMCs: CCL4/MIP-1 beta; assay type: cell-based, human
Procedure: (§1) Human PBMCs were pretreated with YY-101, YDE-011, YDE-043 or reference compound; Xiidra® at various concentration (ranging from […] to 500 nM) for 2 h before stimulation. An equal volume of 0.5% DMSO was used as a vehicle control. Then, the cells were treated with LPS at 5 ug/ml, which was selected based on the pilot study. The supernatants from treated cells were harvested at 24 h and placed in a 96 well for Luminex cytokine & chemokine profiling using a Luminex 200 multiplex assay (Luminex; R&D system, USA).
(§2) The main study arm with triplicate wells per group in a 24-well plate: • 1. Blank • 2. PBMC: 0.5% DMSO • 3. PBMC+LPS (5 ug/ml) • 4. PBMC+YY-101 500 nM • 5. PBMC+YY-101 50 nM • 6. PBMC+YY-101 5 nM • 7. PBMC+YY-101 0.5 nM • 8. PBMC+LPS (5 ug/ml)+Xiidra® 500 nM • 9. PBMC+LPS (5 ug/ml)+Xiidra® 50 nM • 10. PBMC+LPS (5 ug/ml)+Xiidra® 5 nM • 11. PBMC+LPS (5 ug/ml)+Xiidra® 0.5 nM • 12. PBMC+LPS (5 ug/ml)+Xiidra® 0.05 nM • 13. PBMC+LPS (5 ug/ml)+Xiidra® 0.005 nM • 14. PBMC+LPS (5 ug/ml)+YY-101 500 nM • 15. PBMC+LPS (5 ug/ml)+YY-101 50 nM • 16. PBMC+LPS (5 ug/ml)+YY-101 5 nM • 17. PBMC+LPS (5 ug/ml)+YY-101 0.5 nM • 18. PBMC+LPS (5 ug/ml)+YY-101 0.05 nM • 19. PBMC+LPS (5 ug/ml)+YY-101 0.005 nM • 20. PBMC+LPS (5 ug/ml)+YDE-011 500 nM • 21. PBMC+LPS (5 ug/ml)+YDE-011 50 nM • 22. PBMC+LPS (5 ug/ml)+YDE-011 5 nM • 23. PBMC+LPS (5 ug/ml)+YDE-011 0.5 nM • 24. PBMC+LPS (5 ug/ml)+YDE-011 0.05 nM • 25. PBMC+LPS (5 ug/ml)+YDE-011 0.005 nM • 26. PBMC+LPS (5 ug/ml)+YDE-043 500 nM • 27. PBMC+LPS (5 ug/ml)+YDE-043 50 nM • 28. PBMC+LPS (5 ug/ml)+YDE-043 5 nM • 29. PBMC+LPS (5 ug/ml)+YDE-043 0.5 nM • 30. PBMC+LPS (5 ug/ml)+YDE-043 0.05 nM • 31. PBMC+LPS (5 ug/ml)+YDE-043 0.005 nM
(§3) Multiplex assay was used to measure 30 cytokines and chemokines. The 1:200 diluted cell supernatant and serial dilution of the standard were dispensed into a 96 well plate at 50 ul/well. Then, the pre-mixed cocktail of antibody-coated magnetic beads was dispensed at 50 ul/well and incubated at room temperature for 2 h in a horizontal orbital microplate shaker at 800±500 rpm. The beads were washed using a magnetic device to prevent loss. The biotin-antibody was dispensed in 50 ul of each well and incubated at room temperature for 1 h in a shaker at 800±500 rpm. After washing, streptavidin-PE was added at 50 ul/well and incubated at room temperature for 30 min in a shaker under the same conditions. Finally, after washing, wash buffer (100 ul/well) was added to the plate and incubated in a shaker for 2 min. The Luminex™ 200 setting were set according to the manufacturer's protocol. The data was calculated with a standard five-parameter logistic nonlinear regression analysis of the data (xPonent software 4.2, USA). Results were presented as concentration (ng/ml or pg/ml).

IL-1 alpha/IL-1F1 = assay: Example 8 main study Luminex, LPS hPBMCs: IL-1 alpha/IL-1F1; assay type: cell-based, human
Procedure: as §1, §2, §3

[1] = PBMC + LPS(5 ug/ml) + test article 0.005 nM, Mean
[2] = PBMC + LPS(5 ug/ml) + test article 0.005 nM, single replicates
[3] = PBMC + LPS(5 ug/ml) + test article 0.05 nM, Mean
[4] = PBMC + LPS(5 ug/ml) + test article 0.05 nM, single replicates
[5] = PBMC + LPS(5 ug/ml) + test article 0.5 nM, Mean
[6] = PBMC + LPS(5 ug/ml) + test article 0.5 nM, single replicates
[7] = PBMC + LPS(5 ug/ml) + test article 5 nM, Mean
[8] = PBMC + LPS(5 ug/ml) + test article 5 nM, single replicates
[9] = PBMC + LPS(5 ug/ml) + test article 50 nM, Mean
[10] = PBMC + LPS(5 ug/ml) + test article 50 nM, single replicates
[11] = PBMC + LPS(5 ug/ml) + test article 500 nM, Mean
[12] = PBMC + LPS(5 ug/ml) + test article 500 nM, single replicates
[13] = PBMC + test article 0.5 nM, no LPS, single replicates
[14] = PBMC + test article 5 nM, no LPS, single replicates
[15] = PBMC + test article 0.05 uM, no LPS, single replicates
[16] = PBMC + test article 50 nM, no LPS, single replicates
[17] = PBMC + test article 500 nM, no LPS, single replicates
[18] = PBMC + LPS(5 ug/ml) + test article 0.005 nM, individual replicates
[19] = PBMC + LPS(5 ug/ml) + test article 0.05 nM, individual replicates
[20] = PBMC + LPS(5 ug/ml) + test article 0.5 nM, individual replicates

SMILES: CC(C)C[C@H](NC(=O)CNC(=O)[C@H](CC(=O)O)NC(=O)[C@H](CCC(N)=O)NC(=O)CNC(=O)[C@@H]1C[C@@H](O)CN1)C(=O)N[C@@H](C)C(=O)NCC(=O)N1CCC[C@H]1C(=O)N[C@@H](CCCCN)C(=O)O [YY-101] (H-[Hyp]GQDGLAGPK-OH; N-terminus and C-terminus assumed)
- CCL4/MIP-1 beta Concentration (CCL4/MIP-1 beta; [1]): 21677.4 pg/mL
- CCL4/MIP-1 beta MFI (CCL4/MIP-1 beta; [1]): 12.7
- CCL4/MIP-1 beta Concentration (CCL4/MIP-1 beta; [2]): 25629.7 pg/ml and 19701.2 pg/ml (2×)
- CCL4/MIP-1 beta MFI (CCL4/MIP-1 beta; [2]): 14.0 and 12.0 (2×)
- CCL4/MIP-1 beta Concentration (CCL4/MIP-1 beta; [3]): 21011.4 pg/mL
- CCL4/MIP-1 beta MFI (CCL4/MIP-1 beta; [3]): 12.5
- CCL4/MIP-1 beta Concentration (CCL4/MIP-1 beta; [4]): 25629.7 pg/mL and 17703.4 pg/mL and 19701.2 pg/mL
- CCL4/MIP-1 beta MFI (CCL4/MIP-1 beta; [4]): 14.0 and 11.5 and 12.0
- CCL4/MIP-1 beta Concentration (CCL4/MIP-1 beta; [5]): 21011.4 pg/mL
- CCL4/MIP-1 beta MFI (CCL4/MIP-1 beta; [5]): 12.5
- CCL4/MIP-1 beta Concentration (CCL4/MIP-1 beta; [6]): 17703.4 pg/mL and 25629.7 pg/mL and 19701.2 pg/mL
- CCL4/MIP-1 beta MFI (CCL4/MIP-1 beta; [6]): 11.5 and 14.0 and 12.0
- CCL4/MIP-1 beta Concentration (CCL4/MIP-1 beta; [7]): 16072.8 pg/mL
- CCL4/MIP-1 beta MFI (CCL4/MIP-1 beta; [7]): 11.2
- CCL4/MIP-1 beta Concentration (CCL4/MIP-1 beta; [8]): 17703.4 pg/ml and 15257.5 pg/ml (2×)
- CCL4/MIP-1 beta MFI (CCL4/MIP-1 beta; [8]): 11.5 and 11.0 (2×)
- CCL4/MIP-1 beta Concentration (CCL4/MIP-1 beta; [9]): 16738.7 pg/mL
- CCL4/MIP-1 beta MFI (CCL4/MIP-1 beta; [9]): 11.3
- CCL4/MIP-1 beta Concentration (CCL4/MIP-1 beta; [10]): 15257.5 pg/ml (2×) and 19701.2 pg/ml
- CCL4/MIP-1 beta MFI (CCL4/MIP-1 beta; [10]): 11.0 (2×) and 12.0
- CCL4/MIP-1 beta Concentration (CCL4/MIP-1 beta; [11]): 18220.0 pg/mL
- CCL4/MIP-1 beta MFI (CCL4/MIP-1 beta; [11]): 11.7
- CCL4/MIP-1 beta Concentration (CCL4/MIP-1 beta; [12]): 15257.5 pg/ml and 19701.2 pg/ml (2×)
- CCL4/MIP-1 beta MFI (CCL4/MIP-1 beta; [12]): 11.0 and 12.0 (2×)
- CCL4/MIP-1 beta MFI (CCL4/MIP-1 beta; PBMC + test article 0.5 nM, no LPS, Mean): 6.0
- CCL4/MIP-1 beta Concentration (CCL4/MIP-1 beta; [13]): <148.02 pg/mL
- CCL4/MIP-1 beta MFI (CCL4/MIP-1 beta; [13]): 6.0
- CCL4/MIP-1 beta MFI (CCL4/MIP-1 beta; PBMC + test article 5 nM, no LPS, Mean): 6.5
- CCL4/MIP-1 beta Concentration (CCL4/MIP-1 beta; [14]): <148.02 pg/mL
- CCL4/MIP-1 beta MFI (CCL4/MIP-1 beta; [14]): 7.0 and 6.0
- CCL4/MIP-1 beta MFI (CCL4/MIP-1 beta; PBMC + test article 0.05 uM, no LPS, Mean): 5.5
- CCL4/MIP-1 beta Concentration (CCL4/MIP-1 beta; [15]): <148.02 pg/mL
- CCL4/MIP-1 beta MFI (CCL4/MIP-1 beta; [15]): 6.0 and 5.0
- CCL4/MIP-1 beta MFI (CCL4/MIP-1 beta; PBMC + test article 50 nM, no LPS, Mean): 7.5
- CCL4/MIP-1 beta Concentration (CCL4/MIP-1 beta; [16]): <148.02 pg/mL
- CCL4/MIP-1 beta MFI (CCL4/MIP-1 beta; [16]): 8.0 and 7.0
- CCL4/MIP-1 beta MFI (CCL4/MIP-1 beta; PBMC + test article 500 nM, no LPS, Mean): 6.5
- CCL4/MIP-1 beta Concentration (CCL4/MIP-1 beta; [17]): <148.02 pg/mL
- CCL4/MIP-1 beta MFI (CCL4/MIP-1 beta; [17]): 6.0 and 7.0
- LPS-induced CCL-4 (in words) (CCL4/MIP-1 beta; at as low as 5 μM, LPS 5 ug/mL 24 hrs): significantly reduced
- IL-1 alpha/IL-1F1 Concentration (IL-1 alpha/IL-1F1; [1]): 424.2 pg/mL
- IL-1 alpha/IL-1F1 MFI (IL-1 alpha/IL-1F1; [1]): 28.3
- IL-1 alpha/IL-1F1 Concentration (IL-1 alpha/IL-1F1; [18]): 414.2 pg/mL and 383.2 pg/mL and 475.3 pg/mL
- IL-1 alpha/IL-1F1 MFI (IL-1 alpha/IL-1F1; [18]): 28.0 and 27.0 and 30.0
- IL-1 alpha/IL-1F1 Concentration (IL-1 alpha/IL-1F1; [3]): 479.4 pg/mL
- IL-1 alpha/IL-1F1 MFI (IL-1 alpha/IL-1F1; [3]): 30.2
- IL-1 alpha/IL-1F1 Concentration (IL-1 alpha/IL-1F1; [19]): 414.2 pg/ml (2×) and 609.8 pg/ml
- IL-1 alpha/IL-1F1 MFI (IL-1 alpha/IL-1F1; [19]): 28.0 (2×) and 34.5
- IL-1 alpha/IL-1F1 Concentration (IL-1 alpha/IL-1F1; [5]): 455.0 pg/mL
- IL-1 alpha/IL-1F1 MFI (IL-1 alpha/IL-1F1; [5]): 29.3
- IL-1 alpha/IL-1F1 Concentration (IL-1 alpha/IL-1F1; [20]): 460.1 pg/ml (2×) and 444.9 pg/ml
- IL-1 alpha/IL-1F1 MFI (IL-1 alpha/IL-1F1; [20]): 29.5 (2×) and 29.0
- IL-1 alpha/IL-1F1 Concentration (IL-1 alpha/IL-1F1; [7]): 485.3 pg/mL
